Measurements from US4868159A, “Novel substances KS-501 and KS-502 and process for their preparation” (Kyowa Hakko Kogyo Co., Ltd., priority 1987, dated 1989).
≈ marks a conversion by molar mass, not a printed value. Entries after “also recorded” stand apart in the source; their conditions may differ. Where two headings read alike, the source gives them in different places.

Experiments:
[1] = system: rabbit platelets; test: Effect on serotonin release from rabbit platelets; assay type: cell-based, white rabbit; conditions: for inhibition at 10 µg/mL: 10.0 μg/ml; for inhibition at 30 µg/mL: 30.0 μg/ml
Description: Effect on serotonin release from rabbit platelets
9.25 vol of blood was sampled from the carotid artery of a white rabbit and placed in a FALCON 2070 tube (product of Falcon, Bector Dickinson) containing 0.75 vol of 77 mM ethylenediaminetetraacetic acid (EDTA). The thus obtained blood was centrifuged at 200 x g for 15 minutes to obtain platelet rich plasma (referred to as PRP hereinafter). This PRP was incubated with [2-^14 C]-serotonin (2 μCi/100 ml PRP) at 37° C. for an hour to incorporate [2-^14 C]-serotonin therein. Then, the PRP was centrifuged at 650 x g for 15 minutes to obtain platelet precipitates. After washing with Tris-buffered physiological saline (pH 7.4, containing 1 mM EDTA), the platelet precipitates were suspended in CA^++ -free Tyrode's soluton to reach a final density of 10^9 cells/ml.
To 0.475 ml of the thus prepared [2-^14 C]-serotoninlabeled platelet suspension was added 5 μl of a solution of the test compound. After incubation at 37° C. for 3 minutes, platelet activating factor (final concentration: 10^-9 M) was added as a stimulant, followed by incubation for further 3 minutes. 0.3 ml of the reaction solution was immediately taken and poured into 30 µl of ice-cold 0.1 mM formaldehyde5mM EDTA solution to terminate the reaction. After centrifugation at 3,000 rpm at 0° C. for 10 minutes, 250 μl of the supernatant was taken and the radioactivity was measured with a liquid scintillation counter.
*The rate of inhibition of serotonin release was calculated according to
the following equation.

[2] = system: rabbit platelets; test: Effect on platelet aggregation of rabbit platelets; assay type: cell-based, white rabbit; conditions: for IC50: Oryctolagus cuniculus, Platelet, 37° C., read-out: IC50 (concentration of the test compound showing 50% inhibition), platelet aggregation
Description: Effect on platelet aggreation of rabbit platelets
8.5 vol of blood was sampled from the carotid artery of a white rabbit and placed in a FALCON 2070 tube (product of Falcon, Bector Dickinson) containing 1.5 vol of citrate-dextrose soluton (71 mM citric acid, 85 mM sodium citrate and 111 mM dextrose). The thus obtained blood was centrifuged at 200×g for 15 minutes to obtain PRP. This PRP was centrifuged at 650×g for 10 minutes to obtain platelet precipitates. After washing with Ca^++ -free Tyrode's solution containing 2 mM ethyleneglycol bis(2-aminoethylether) tetraacetic acid (EGTA), the platelet precipitates were again centrifuged at 650 ×g for 10 minutes and washed. The thus obtained platelet precipitates were suspended in Ca^++ -free Tyrode's solution containing 0.25% bovine serum albumin to reach a density of 5×10^8 cells/ml. After the washed platelet suspension was allowed to stand at room temperature for about 30 minutes, 1 mM CaCl2 or 1 mM EGTA was added thereto and the mixture was allowed to stand for further 30 minutes. Then, platelet aggregation was measured.
The aggregation of platelets was determined using an aggregometer, AGGRETEC TE-500 (product of Erma Optical Co., Ltd.) to which the Born method was applied.
First, 10 μl of a test compound soluton was added to 0.2 ml of the washed platelet suspension, while stirring at 1,000 rmp and at 37° C. After incubation at 37° C. for 3 minutes, 10 μl of thrombin (final concentration: 0.05 U/ml) or platelet activating factor (final concentration: 10^-10 M) was added as a stimultant to initiate the reaction. The rate of inhibition of platelet aggregation of the test compound was calculated from the maximum aggregation rate obtained by the use of the test compound and the maximum aggregation rate obtained by the use of only the solvent used for dissolving the test compound, according to the following equation. [formula] A : Maximum aggregation rate of the solvent alone B : Maximum aggregation rate of the test compound
*Concentration of the test compound showing 50% inhibition.

[3] = Solubility; assay type: physicochemical
[4] = Oryctolagus cuniculus, stimulant platelet activating factor 10^-9 M, 37° C., read-out: Rate of inhibition of serotonin release
[5] = hexane, carbon tetrachloride, benzene, neutral water, acidic water

Row | Compound | Inhibition of serotonin release from platelets (in words) [1] | inhibition at 3 µg/mL ([1]; Oryctolagus cuniculus, 3.0 μg/ml, stimulant platelet activating factor 10^-9 M, 37° C., read-out: Rate of inhibition of serotonin release) [%] | inhibition at 10 µg/mL [1, 4] [%] | inhibition at 30 µg/mL [1, 4] [%] | Inhibition of platelet aggregation (in words) [2] | IC50 ([2]; stimulant platelet activating factor, final concentration 10^-10 M) [µg/mL] | IC50 ([2]; stimulant thrombin, final concentration 0.05 U/ml) [µg/mL] | Solubility ([3]; KS-501: chloroform, ethyl acetate, acetonitrile, methanol, n-butanol, acetone, tetrahydrofuran, dioxane, dimethylsulfoxide, pyridine, monoethanolamine, acetic acid, alkaline water) | Solubility [3, 5] | inhibition at 50 µg/mL ([1]; Oryctolagus cuniculus, 50.0 μg/ml, stimulant platelet activating factor 10^-9 M, 37° C., read-out: Rate of inhibition of serotonin release) [%] | Solubility ([3]; KS-502: chloroform, ethyl acetate, acetonitrile)
1 | CCCCCCCc1cc(O)cc(OC(=O)c2c(CCCCCCC)cc(O)cc2OC2OC(C(O)CO)C(O)C2O)c1 (stereo not drawn) [KS-501] | inhibitory activity on serotonin release from platelets; also recorded: inhibited serotonin release from rabbit platelets, depending on the concentration | 10.2 | 27.1 | 66.4 | inhibitory activity on platelet aggregation; also recorded: inhibited platelet aggregation stimulated with thrombin and platelet activating factor | 38 (≈ 62.8 µM) | 57 (≈ 94.3 µM) | Readily soluble | Insoluble | – | –
2 | CCCCCCCc1cc(OC(=O)c2c(CCCCCCC)cc(O)cc2OC2OC(C(O)CO)C(O)C2O)cc(O)c1C(=O)O (stereo not drawn) [KS-502] | inhibitory activity on serotonin release from platelets; also recorded: inhibited serotonin release from rabbit platelets, depending on the concentration | – | 2.7 | 28.9 | – | – | – | – | Insoluble | 51.4 | Soluble
